According to BindingDB's records for doi:10.1021/jm950641i (Sandoz Research Institute, 1996):

Experiments:
[1] = biological target: T1, Dimer of Gag-Pol polyprotein [489-587] (Human immunodeficiency virus 1, UniProt P12497); test: Protease Inhibition Assay; conditions: pH 6.25; 37 °C
T1 construct: 489-587
Procedure: (§1) Enzymatic activity was measured by following cleavage of the substrate H-Lys-Ala-Arg-Val-Leu-pNph-Glu-Ala-Nle-NH2. Products of the cleavage reaction were quantified by HPLC detection.

[2] = biological target: T2, Dimer of Gag-Pol polyprotein [514-612] (Human immunodeficiency virus 2, UniProt P04584); test: Protease Inhibition Assay; conditions: pH 4.7; 37 °C
T2 construct: 514-612
T2 sequence (P04584 whole entry): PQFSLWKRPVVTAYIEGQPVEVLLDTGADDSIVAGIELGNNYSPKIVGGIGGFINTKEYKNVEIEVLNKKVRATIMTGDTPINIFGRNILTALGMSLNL
Procedure: as §1

| SMILES | Ki [1] | Ki [2] |
| --- | --- | --- |
| CC(C)C1NC(=O)[C@@H](C(O)[C@H](Cc2ccccc2)NC(=O)[C@@H](NC(=O)OCc2ccccc2)C(C)C)NCc2ccc(cc2)OCCOCCNC1=O (stereo partly drawn) [benzyl N-[(1S)-1-{[(1S,2S)-1-[(10R,13R)-9,12-dioxo-10-(propan-2-yl)-2,5-dioxa-8,11,14-triazabicyclo[14.2.2]icosa-1(18),16,19-trien-13-yl]-1-hydroxy-3-phenylpropan-2-yl]carbamoyl}-2-methylpropyl]carbamate] | 7.9 nM | 19 nM |
| CC(C)C1NC(=O)[C@@H](C(O)[C@H](Cc2ccccc2)NC(=O)OC(C)(C)C)NCc2ccc(cc2)OCCOCCNC1=O (stereo partly drawn) [tert-butyl N-[(1S,2S)-1-[(10R,13R)-9,12-dioxo-10-(propan-2-yl)-2,5-dioxa-8,11,14-triazabicyclo[14.2.2]icosa-1(18),16,19-trien-13-yl]-1-hydroxy-3-phenylpropan-2-yl]carbamate] | 14 nM |  |
| CC(C)C1NC(=O)[C@@H](C(O)[C@H](Cc2ccccc2)NC(=O)[C@@H](NC(=O)OCc2ccccc2)C(C)C)NCc2ccc(cc2)OCCCCNC1=O (stereo partly drawn) [benzyl N-[(1S)-1-{[(1S,2S)-1-[(9R,12R)-8,11-dioxo-9-(propan-2-yl)-2-oxa-7,10,13-triazabicyclo[13.2.2]nonadeca-1(17),15,18-trien-12-yl]-1-hydroxy-3-phenylpropan-2-yl]carbamoyl}-2-methylpropyl]carbamate] | 6.6 nM |  |
| CC(C)C1NC(=O)[C@@H](C(O)[C@H](Cc2ccccc2)NC(=O)[C@@H](NC(=O)CSc2nncn2C)C(C)(C)C)NCc2ccc(cc2)OCCOCCNC1=O (stereo partly drawn) [(2S)-N-[(1S,2S)-1-[(10R,13R)-9,12-dioxo-10-(propan-2-yl)-2,5-dioxa-8,11,14-triazabicyclo[14.2.2]icosa-1(18),16,19-trien-13-yl]-1-hydroxy-3-phenylpropan-2-yl]-3,3-dimethyl-2-{2-[(4-methyl-4H-1,2,4-triazol-3-yl)sulfanyl]acetamido}butanamide] | 11.1 nM |  |
| CC(C)C1NC(=O)[C@@H](C(O)[C@H](Cc2ccccc2)NC(=O)[C@@H](NC(=O)OCc2ccccc2)C(C)(C)C)NCc2ccc(cc2)OCCOCCNC1=O (stereo partly drawn) [benzyl N-[(1S)-1-{[(1S,2S)-1-[(10R,13R)-9,12-dioxo-10-(propan-2-yl)-2,5-dioxa-8,11,14-triazabicyclo[14.2.2]icosa-1(18),16,19-trien-13-yl]-1-hydroxy-3-phenylpropan-2-yl]carbamoyl}-2,2-dimethylpropyl]carbamate] | 8 nM | 16 nM |
| CC(C)C1NC(=O)[C@@H](C(O)[C@H](Cc2ccccc2)NC(=O)OC(C)(C)C)NCc2ccc(cc2)OCCCCNC1=O (stereo partly drawn) [tert-butyl N-[(1S,2S)-1-[(9R,12R)-8,11-dioxo-9-(propan-2-yl)-2-oxa-7,10,13-triazabicyclo[13.2.2]nonadeca-1(17),15,18-trien-12-yl]-1-hydroxy-3-phenylpropan-2-yl]carbamate] | 17 nM |  |
| CC(C)C1NC(=O)[C@@H](C(O)[C@H](Cc2ccccc2)NC(=O)OC2CCOC2)NCc2ccc(cc2)OCCOCCNC1=O (stereo partly drawn) [(3R)-oxolan-3-yl N-[(1S,2S)-1-[(10R,13R)-9,12-dioxo-10-(propan-2-yl)-2,5-dioxa-8,11,14-triazabicyclo[14.2.2]icosa-1(18),16,19-trien-13-yl]-1-hydroxy-3-phenylpropan-2-yl]carbamate] | 8.2 nM |  |
| CC(C)C1NC(=O)[C@@H](C(O)[C@H](Cc2ccccc2)NC(=O)[C@@H](NC(=O)OCc2ccccc2)C(C)C)NCc2cccc(c2)OCCOCCOCCNC1=O (stereo partly drawn) [benzyl N-[(1S)-1-{[(1S,2S)-1-[(13R,16R)-12,15-dioxo-13-(propan-2-yl)-2,5,8-trioxa-11,14,17-triazabicyclo[17.3.1]tricosa-1(22),19(23),20-trien-16-yl]-1-hydroxy-3-phenylpropan-2-yl]carbamoyl}-2-methylpropyl]carbamate] | 7.7 nM |  |
| COc1ccc(CN[C@@H](C(=O)NC(C(=O)NCc2nc3ccccc3[nH]2)C(C)C)C(O)[C@H](Cc2ccccc2)NC(=O)[C@@H](NC(=O)OCc2ccccc2)C(C)C)cc1 (stereo partly drawn) [benzyl N-[(1S)-1-{[(2S,3S,4R)-4-{[(1R)-1-[(1H-1,3-benzodiazol-2-ylmethyl)carbamoyl]-2-methylpropyl]carbamoyl}-3-hydroxy-4-{[(4-methoxyphenyl)methyl]amino}-1-phenylbutan-2-yl]carbamoyl}-2-methylpropyl]carbamate] | 3.4 nM |  |
| CC(C)C1NC(=O)[C@@H](C(O)[C@H](Cc2ccccc2)NC(=O)[C@@H](NC(=O)OCc2ccccc2)C(C)C)NCc2ccc(cc2)OCCOCCOCCNC1=O (stereo partly drawn) [benzyl N-[(1S)-1-{[(1S,2S)-1-[(13R,16R)-12,15-dioxo-13-(propan-2-yl)-2,5,8-trioxa-11,14,17-triazabicyclo[17.2.2]tricosa-1(21),19,22-trien-16-yl]-1-hydroxy-3-phenylpropan-2-yl]carbamoyl}-2-methylpropyl]carbamate] | 6.9 nM | 27 nM |
| CC(C)C1NC(=O)[C@@H](C(O)[C@H](Cc2ccccc2)NC(=O)OC(C)(C)C)NCc2cccc(c2)OCCOCCOCCNC1=O (stereo partly drawn) [tert-butyl N-[(1S,2S)-1-[(13R,16R)-12,15-dioxo-13-(propan-2-yl)-2,5,8-trioxa-11,14,17-triazabicyclo[17.3.1]tricosa-1(22),19(23),20-trien-16-yl]-1-hydroxy-3-phenylpropan-2-yl]carbamate] | 208 nM |  |
| CC(C)C1NC(=O)[C@@H](C(O)[C@H](Cc2ccccc2)NC(=O)OC(C)(C)C)NCc2ccc(cc2)OCCOCCOCCOCCNC1=O (stereo partly drawn) [tert-butyl N-[(1S,2S)-1-[(16R,19R)-15,18-dioxo-16-(propan-2-yl)-2,5,8,11-tetraoxa-14,17,20-triazabicyclo[20.2.2]hexacosa-1(24),22,25-trien-19-yl]-1-hydroxy-3-phenylpropan-2-yl]carbamate] | 23.2 nM |  |
| COc1ccc(CN[C@@H](C(=O)N[C@H]2c3ccccc3CC2O)C(O)[C@H](Cc2ccccc2)NC(=O)[C@@H](NC(=O)OCc2ccccc2)C(C)(C)C)cc1 (stereo partly drawn) [benzyl N-[(1S)-1-{[(2S,3S,4R)-3-hydroxy-4-{[(1S,2S)-2-hydroxy-2,3-dihydro-1H-inden-1-yl]carbamoyl}-4-{[(4-methoxyphenyl)methyl]amino}-1-phenylbutan-2-yl]carbamoyl}-2,2-dimethylpropyl]carbamate] | 9.5 nM | 50 nM |
